In patent US7008957B2, “Bicyclic cyanoheterocycles, process for their preparation and their use as medicaments” (Sanofi-Aventis Deutschland GmbH, priority 2003, dated 2006) one finds melting point data, which are given here for two molecules.

By melting point is commonly meant the temperature of the solid-liquid transition. In the case of `N#C[C@@H]1CS[C@@H]2C[C@@H](N)C(=O)N12.O=C(O)C(F)(F)F`, the melting point worked out at 173.5 °C. The molecule `N#C[C@@H]1CS[C@H]2C[C@](N)(Cc3ccccc3)C(=O)N12.O=C(O)C(F)(F)F` gave a melting point of 209 °C.
